Experimental findings from patent publication US10077277B2, “Bicyclic heteroarylaminoalkyl phenyl derivatives as PI3K inhibitors” (Incyte Corporation, priority 2014, dated 2018) are described below.

The structures appear in SMILES notation. Read-outs that look alike come from different tables or passages of the source. A value given as a limit tells only on which side of the number the result lay.

One assay concerns SUDHL-6 cells. Nature of the assay: SUDHL-6 cell proliferation assay (Example B3). It counts as cell-based. To be noted: 3 days, Cell Titer-GLO ATP quantitation, read-out: SUDHL6 IC50. Here is the method:
Example B3: SUDHL-6 Cell Proliferation Assay
SUDHL-6 cell line (diffuse large B cell lymphoma) was purchased from ATCC (Manassas, Va.) and maintained in the culture medium recommended (RPMI and 10% FBS). To measure the anti-proliferation activity of the compounds through ATP quantitation, the SUDHL-6 cells was plated with the culture medium (5000 cells/well/per 200 μl) into 96-well polystyrene clear black tissue culture plate (Greiner-bio-one through VWR, NJ) in the presence or absence of a concentration range of test compounds. After 3 days, Cell Titer-GLO Luminescent (Promega, Madison, Wis.) cell culture agent was added to each well for 10 minutes at room temperature to stabilize the luminescent signal. This determines the number of viable cells in culture based on quantitation of the ATP present, which signals the presence of metabolically active cells. Luminescence was measured with the TopCount 384 (Packard Bioscience through Perkin Elmer, Boston, Mass.). IC50 data for the Examples is presented in Table 3 determined by the assay of Example B3.
For orientation: ATP-based viability assays read luminescence as a measure of living cells.

The target of another assay is PI3Kδ (p110δ/p85α) (Homo sapiens (Human), UniProt O00329). Nature of the assay: PI3Kδ scintillation proximity assay (Example A3). To be noted: Assay A3, 20 μM ATP. It is filed as biochemical. An excerpt: Example A3: PI3Kδ Scintillation Proximity Assay
Chain of PI3Kδ (p110δ/p85α) (O00329 whole entry): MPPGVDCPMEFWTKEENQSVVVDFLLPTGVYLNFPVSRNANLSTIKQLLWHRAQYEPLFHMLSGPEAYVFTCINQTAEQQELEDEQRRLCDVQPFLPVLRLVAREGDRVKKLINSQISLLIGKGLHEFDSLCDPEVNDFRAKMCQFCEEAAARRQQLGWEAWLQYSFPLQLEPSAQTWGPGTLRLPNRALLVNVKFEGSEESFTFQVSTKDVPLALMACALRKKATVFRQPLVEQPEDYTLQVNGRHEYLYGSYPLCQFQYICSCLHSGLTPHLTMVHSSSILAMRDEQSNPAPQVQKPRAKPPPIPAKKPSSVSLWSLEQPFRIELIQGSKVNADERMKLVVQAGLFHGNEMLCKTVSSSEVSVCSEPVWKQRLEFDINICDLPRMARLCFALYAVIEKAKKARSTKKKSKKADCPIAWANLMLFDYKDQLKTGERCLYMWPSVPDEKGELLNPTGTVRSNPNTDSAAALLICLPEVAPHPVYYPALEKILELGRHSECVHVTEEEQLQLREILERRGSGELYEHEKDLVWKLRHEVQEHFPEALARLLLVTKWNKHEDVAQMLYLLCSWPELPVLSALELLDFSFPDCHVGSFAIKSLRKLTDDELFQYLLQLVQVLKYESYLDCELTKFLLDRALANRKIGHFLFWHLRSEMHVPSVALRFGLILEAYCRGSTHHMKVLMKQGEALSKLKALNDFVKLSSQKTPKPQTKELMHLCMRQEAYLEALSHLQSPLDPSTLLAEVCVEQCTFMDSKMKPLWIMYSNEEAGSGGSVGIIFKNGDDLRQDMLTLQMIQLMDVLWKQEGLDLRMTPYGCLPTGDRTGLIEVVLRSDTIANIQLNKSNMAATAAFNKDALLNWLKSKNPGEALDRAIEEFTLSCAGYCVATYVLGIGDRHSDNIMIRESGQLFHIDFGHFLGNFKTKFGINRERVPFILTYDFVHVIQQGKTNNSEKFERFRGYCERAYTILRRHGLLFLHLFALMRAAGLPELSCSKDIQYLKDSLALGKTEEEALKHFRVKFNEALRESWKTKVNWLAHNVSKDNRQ
Chain of PI3Kδ (p110δ/p85α) (P27986 whole entry partner): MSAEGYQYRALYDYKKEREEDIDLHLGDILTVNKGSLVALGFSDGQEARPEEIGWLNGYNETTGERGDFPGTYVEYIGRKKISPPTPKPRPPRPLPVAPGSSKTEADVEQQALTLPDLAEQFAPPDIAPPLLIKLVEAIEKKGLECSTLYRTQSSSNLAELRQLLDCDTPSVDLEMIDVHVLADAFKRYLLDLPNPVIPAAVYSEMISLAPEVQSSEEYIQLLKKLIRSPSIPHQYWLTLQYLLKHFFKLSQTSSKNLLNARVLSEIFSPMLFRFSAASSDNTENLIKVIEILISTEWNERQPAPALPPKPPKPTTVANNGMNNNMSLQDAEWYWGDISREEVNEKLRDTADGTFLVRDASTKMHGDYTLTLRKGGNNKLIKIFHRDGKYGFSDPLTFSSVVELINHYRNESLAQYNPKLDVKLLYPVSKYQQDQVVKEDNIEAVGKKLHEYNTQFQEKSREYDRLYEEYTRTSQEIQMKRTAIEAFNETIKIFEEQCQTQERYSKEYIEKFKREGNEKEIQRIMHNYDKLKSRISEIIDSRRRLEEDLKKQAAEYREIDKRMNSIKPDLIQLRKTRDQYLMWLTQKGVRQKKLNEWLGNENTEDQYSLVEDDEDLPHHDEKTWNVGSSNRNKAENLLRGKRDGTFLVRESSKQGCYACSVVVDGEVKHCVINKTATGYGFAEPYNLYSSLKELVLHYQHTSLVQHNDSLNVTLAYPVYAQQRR
[γ-^33P]ATP (10 mCi/mL) was purchased from PerkinElmer (Waltham, Mass.). Lipid kinase substrate, D-myo-Phosphatidylinositol 4,5-bisphosphate (PtdIns(4,5)P2)D (+)-sn-1,2-di-O-octanoylglyceryl, 3-O-phospho linked (PIP2), CAS 204858-53-7, was purchased from Echelon Biosciences (Salt Lake City, Utah). PI3Kδ (p110δ/p85α) was purchased from Millipore (Bedford, Mass.). ATP, MgCl2, DTT, EDTA, MOPS and CHAPS were purchased from SigmaAldrich (St. Louis, Mo.). Wheat Germ Agglutinin (WGA) YSi SPA Scintillation Beads was purchased from GE healthcare life sciences (Piscataway, N.J.).
The kinase reaction was conducted in polystyrene 384-well matrix white plate from Thermo Fisher Scientific in a final volume of 25 μL. Inhibitors were first diluted serially in DMSO and added to the plate wells before the addition of other reaction components. The final concentration of DMSO in the assay was 0.5%. The PI3K assays were carried out at room temperature in 20 mM MOPS, pH 6.7, 10 mM MgCl2, 5 mM DTT and CHAPS 0.03%. Reactions were initiated by the addition of ATP, the final reaction mixture consisted of 20 μM PIP2, 20 μM ATP, 0.2 μCi [γ-^33P] ATP, 4 nM PI3Kδ. Reactions were incubated for 210 min and terminated by the addition of 40 μL SPA beads suspended in quench buffer: 150 mM potassium phosphate pH 8.0, 20% glycerol. 25 mM EDTA, 400 μM ATP. The final concentration of SPA beads was 1.0 mg/mL. After the plate sealing, plates were shaken overnight at room temperature and centrifuged at 1800 rpm for 10 minutes, the radioactivity of the product was determined by scintillation counting on Topcount (PerkinElmer). IC50 determination was performed by fitting the curve of percent control activity versus the log of the inhibitor concentration using the GraphPad Prism 3.0 software. IC50 data for the Examples is presented in Table 2 as determined by Assay A3.
In general terms: In a scintillation proximity assay essentially only radioactivity close to the scintillant gives light.

With `COc1c([C@H](C)Nc2ncnc3cccnc23)cc(Cl)c(C)c1-c1ccc(C(=O)N(C)C)nc1` [Example 3, 5-{3-Chloro-6-methoxy-2-methyl-5-[(1S)-1-(pyrido[3,2-d]pyrimidin-4-ylamino)ethyl]phenyl}-N,N-dimethylpyridine-2-carboxamide bis(trifluoroacetate)], the IC50 (as a rule, the point on the concentration scale where inhibition reaches its midpoint) was at most 500 nM in the assay on SUDHL-6 cells (Homo sapiens, SU-DHL-6, 72 h) and at most 100 nM on PI3Kδ (p110δ/p85α).
Regarding `CCNC(=O)c1c(C)c(Cl)cc(C(C)Nc2ncnc3cccnc23)c1-c1cc(F)cc(F)c1` (stereo not shown) [Example 4, 4-Chloro-N-ethyl-3′,5′-difluoro-3-methyl-6-[1-(pyrido[3,2-d]pyrimidin-4-ylamino)ethyl]biphenyl-2-carboxamide], the concentration for half-maximal inhibition (IC50) was at most 500 nM in the assay on SUDHL-6 cells (Homo sapiens, SU-DHL-6, 72 h) and at most 100 nM at PI3Kδ (p110δ/p85α).
For the compound `CCOc1c(C(C)Nc2ncnc3scnc23)cc(Cl)c(F)c1C1CNC(=O)C1` (single isomer, unassigned) [Example 1A, 4-{3-chloro-6-ethoxy-2-fluoro-5-[1-([1,3]thiazolo[5,4-d]pyrimidin-7-ylamino)ethyl]phenyl}pyrrolidin-2-one], the IC50 in the assay with SUDHL-6 cells (Homo sapiens, SU-DHL-6, 72 h) was at most 500 nM; against PI3Kδ (p110δ/p85α), at most 100 nM.
On to `CCOc1c([C@@H](C)Nc2ncnc3cccnc23)cc(Cl)c(F)c1[C@@H]1CNC(=O)C1` [Example 2A, 4-{3-chloro-6-ethoxy-2-fluoro-5-[1-(pyrido[3,2-d]pyrimidin-4-ylamino)ethyl]phenyl}pyrrolidin-2-one], for which the IC50 is at most 500 nM in the assay on SUDHL-6 cells (Homo sapiens, SU-DHL-6, 72 h) and at most 100 nM at PI3Kδ (p110δ/p85α).
In the case of `CCOc1c(C(C)Nc2ncnc3scnc23)cc(Cl)c(F)c1C1CNC(=O)C1` (single isomer, unassigned) [Example 1C, 4-{3-chloro-6-ethoxy-2-fluoro-5-[1-([1,3]thiazolo[5,4-d]pyrimidin-7-ylamino)ethyl]phenyl}pyrrolidin-2-one], the concentration for half-maximal inhibition (IC50) was at most 500 nM with SUDHL-6 cells and at most 100 nM against PI3Kδ (p110δ/p85α).
